Source: US8063075B2, “Pyrrolidine ether derivatives as NK3 receptor antagonists” (Hoffmann-La Roche Inc., priority 2008, dated 2011)

target: T1, recombinant human NK3 receptor (Homo sapiens, UniProt P29371); test: [3H]SR142801 competition binding assay; conditions: membranes from HEK293 cells transiently expressing hNK3; [3H]SR142801 at its KD; 75 min RT; read-out: Data [μM] (affinity constant Ki, hNK3 receptor binding)
T1 construct: expressed in transfected cells; host or cells: HEK293 cells (transient expression), membranes
T1 sequence (P29371 1-465): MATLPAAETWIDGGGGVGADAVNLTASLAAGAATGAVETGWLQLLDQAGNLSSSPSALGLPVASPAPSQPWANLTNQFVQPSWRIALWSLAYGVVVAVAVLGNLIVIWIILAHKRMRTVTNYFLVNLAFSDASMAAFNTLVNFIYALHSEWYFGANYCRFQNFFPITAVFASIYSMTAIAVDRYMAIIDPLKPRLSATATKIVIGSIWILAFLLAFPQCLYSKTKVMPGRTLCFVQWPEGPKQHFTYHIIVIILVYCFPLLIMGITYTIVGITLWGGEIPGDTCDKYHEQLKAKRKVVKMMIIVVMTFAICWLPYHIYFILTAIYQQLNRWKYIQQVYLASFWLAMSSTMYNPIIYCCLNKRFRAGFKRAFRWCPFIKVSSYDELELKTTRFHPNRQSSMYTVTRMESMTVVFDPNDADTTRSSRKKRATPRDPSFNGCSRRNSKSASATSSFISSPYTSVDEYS
Protocol: [^3H]SR142801 Competition Binding Assay
hNK3 receptor binding experiment were performed using [^3H]SR142801 (Catalog No. TRK1035, specific activity: 74.0 Ci/mmol, Amersham, GE Healthcare UK limited, Buckinghamshire, UK) and membrane isolated from HEK293 cells transiently expressing recombinant human NK3 receptor. After thawing, the membrane homogenates were centrifuged at 48,000×g for 10 min at 4° C., the pellets were resuspended in the 50 mM Tris-HCl, 4 mM MnCl2, 1 μM phosphoramidon, 0.1% BSA binding buffer at pH 7.4 to a final assay concentration of 5 μg protein/well. […] At the end of the incubation, membranes were filtered onto unitfilter (96-well white microplate with bonded GF/C filter preincubated 1 h in 0.3% PEI+0.3% BSA, Packard BioScience, Meriden, Conn.) with a Filtermate 196 harvester (Packard BioScience) and washed 4 times with ice-cold 50 mM Tris-HCl, pH 7.4 buffer. Nonspecific binding was measured in the presence of 10 μM SB222200 for both radioligands. The radioactivity on the filter was counted (5 min) on a Packard Top-count microplate scintillation counter with quenching correction after addition of 45 μl of microscint 40 (Can berra Packard S. A., Zürich, Switzerland) and shaking for 1 h. Inhibition curves were fitted according to the Hill equation: y=100/(1+(x/IC50)^nH), where nH=slope factor using Excel-fit 4 software (Microsoft). IC50 values were derived from the inhibition curve and the affinity constant (Ki) values were calculated using the Cheng-Prussoff equation Ki=IC50/(1+[L]/KD) where [L] is the concentration of radioligand and KD is its dissociation constant at the receptor, derived from the saturation isotherm. All experiments were performed in duplicate and the mean±standard error (SEM) of the individual Ki values was calculated.

First: CC(=O)N1CCC(C(=O)N2C[C@H]([C@H](C)Oc3ccc(Cl)cn3)[C@@H](c3ccc(Cl)c(Cl)c3)C2)CC1 (racemic) [Example 1, 1-{4-[(3RS,4SR)-3-[(SR)-1-(5-Chloro-pyridin-2-yloxy)-ethyl]-4-(3,4-dichloro-phenyl)-pyrrolidine-1-carbonyl]-piperidin-1-yl}-ethanone]
Second: CC(=O)N1CCC(C(=O)N2C[C@H]([C@H](C)Oc3ccc(C#N)cn3)[C@@H](c3ccc(Cl)c(Cl)c3)C2)CC1 (racemic) [Example 2, 6-{(SR)-1-[(3RS,4SR)-1-(1-Acetyl-piperidine-4-carbonyl)-4-(3,4-dichloro-phenyl)-pyrrolidin-3-yl]-ethoxy}-nicotinonitrile]
The Ki of the first is 1.6-fold lower: 0.0047 µM for the first, 0.0076 µM for the second. The first binds more tightly here.

Compared with `C[C@H](Oc1ccc(Cl)cn1)[C@H]1CN(C(=O)C2CCN(C(=O)C3CCC3)CC2)C[C@@H]1c1ccc(Cl)c(Cl)c1` (racemic) [Example 3, [(3RS,4SR)-3-[(SR)-1-(5-Chloro-pyridin-2-yloxy)-ethyl]-4-(3,4-dichloro-phenyl)-pyrrolidin-1-yl]-(1-cyclobutanecarbonyl-piperidin-4-yl)-methanone], `C[C@H](Oc1ccc(C#N)cn1)[C@H]1CN(C(=O)C2CCN(C(=O)C3CC3)CC2)C[C@@H]1c1ccc(Cl)c(Cl)c1` (racemic) [Example 14, 6-{(SR)-1-[(3RS,4SR)-1-(1-Cyclopropanecarbonyl-piperidine-4-carbonyl)-4-(3,4-dichloro-phenyl)-pyrrolidin-3-yl]-ethoxy}-nicotinonitrile] is 4.1-fold higher in Ki: 0.0012 µM for the first, 0.0049 µM for the second. The first binds more tightly here.

Compared with `COC(=O)N[C@H]1CC[C@H](C(=O)N2C[C@H]([C@H](C)Oc3ccc(Cl)cn3)[C@@H](c3ccc(Cl)c(Cl)c3)C2)CC1` (racemic) [Example 5, {4-[(3RS,4SR)-3-[(SR)-1-(5-Chloro-pyridin-2-yloxy)-ethyl]-4-(3,4-dichloro-phenyl)-pyrrolidine-1-carbonyl]-cyclohexyl}-carbamic acid methyl ester], `COC[C@H]1CC[C@H](C(=O)N2C[C@H]([C@H](C)Oc3ccc(Cl)cn3)[C@@H](c3ccc(Cl)c(Cl)c3)C2)CC1` (racemic) [Example 6, [(3RS,4SR)-3-[(SR)-1-(5-Chloro-pyridin-2-yloxy)-ethyl]-4-(3,4-dichloro-phenyl)-pyrrolidin-1-yl]-(4-methoxymethyl-cyclohexyl)-methanone] is 1.6-fold lower in Ki: 0.0095 µM for the first, 0.0058 µM for the second.

`C#C[C@H]1CC[C@H](C(=O)N2C[C@H]([C@H](C)Oc3ccc(Cl)cn3)[C@@H](c3ccc(Cl)c(Cl)c3)C2)CC1` (racemic) [Example 10, [(3RS,4SR)-3-[(SR)-1-(5-Chloro-pyridin-2-yloxy)-ethyl]-4-(3,4-dichloro-phenyl)-pyrrolidin-1-yl]-(4-ethynyl-cyclohexyl)-methanone] and `C[C@H](Oc1ccc(Cl)cn1)[C@H]1CN(C(=O)C2CCC(=O)CC2)C[C@@H]1c1ccc(Cl)c(Cl)c1` (racemic) [Example 12, 4-[(3RS,4SR)-3-[(SR)-1-(5-Chloro-pyridin-2-yloxy)-ethyl]-4-(3,4-dichloro-phenyl)-pyrrolidine-1-carbonyl]-cyclohexanone] are within 1.5-fold of each other in Ki: 0.009 µM for the first, 0.0092 µM for the second.

`CC(C)CN1CCC(C(=O)N2C[C@H]([C@H](C)Oc3ccc(Cl)cn3)[C@@H](c3ccc(Cl)c(Cl)c3)C2)CC1` (racemic) [Example 11, [(3RS,4SR)-3-[(SR)-1-(5-Chloro-pyridin-2-yloxy)-ethyl]-4-(3,4-dichloro-phenyl)-pyrrolidin-1-yl]-(1-isobutyl-piperidin-4-yl)-methanone] and `C[C@H](Oc1ccc(C#N)cn1)[C@H]1CN(C(=O)C2CCN(C(=O)OC(C)(C)C)CC2)C[C@@H]1c1ccc(Cl)c(Cl)c1` (racemic) [Example 13, 4-[(3RS,4SR)-3-[(SR)-1-(5-Cyano-pyridin-2-yloxy)-ethyl]-4-(3,4-dichloro-phenyl)-pyrrolidine-1-carbonyl]-piperidine-1-carboxylic acid tert-butyl ester] are within 1.5-fold of each other in Ki: 0.0061 µM for the first, 0.0044 µM for the second.
